Test results: patent US5612480A, “2-chloro and 2-bromo derivatives of 1,5-iminosugars” (priority 1995, dated 1997)

Test system: visna virus
Experiment: Inhibition of visna virus growth, plaque reduction assay in sheep choroid plexus (SCP) cells (Method A)
Assay type: cell-based
Conditions: Visna-maedi virus; for inhibition at 1 µM: 0.001 mM; for inhibition at 10 µM: 0.01 mM; for inhibition at 100 µM: 0.1 mM; for inhibition at 1000 µM: 1.0 mM
Excerpt: Inhibitory activity against visna virus was shown by a conventional plaque reduction assay. Visna virus, a lentivirus genetically very similar to the AIDS virus, is pathogenic for sheep and goats. See Sonigo et al., Cell 42, 369-382 (1985); Haase, Nature 322, 130-136 (1986). Inhibition of visna virus replication in vitro as a useful model for HIV and its inhibition by test compounds has been described by Frank et al., Antimicrobial Agents and Chemotherapy 31 (9), 1369-1374 (1987).
Various illustrative compounds synthesized above were tested for inhibition of visna virus in vitro in a plaque reduction assay (Method A) or for inhibition of HIV-1 in a test which measured reduction of cyto-pathogenic effect in virus-infected syncytium-sensitive Leu-3a-positive CEM cells grown in tissue culture (Method B) as follows:
Sheep choroid plexus (SCP) cells were obtained from American Type Culture Collection (ATCC) catalogue number CRL 1700 and were routinely passaged in vitro in Dulbecco's Modified Eagles (DME) medium supplemented with 20% fetal bovine serum (FBS). SCP cells were passaged once per week at a 1:2 or 1:3 split ratio. Visna was titrated by plaque assay in six-well plates. Virus pools were stored at -70° C.
SCP cells were cultured in 6-well plates to confluence. Wells were washed two times with serum free Minimal Essential Medium (MEM) to remove FBS. 0.2 ml of virus was added per well in MEM supplemented with 4 mM glutamine and gentamycin. After 1 hour adsorption, the virus was aspirated from each well. The appropriate concentration of each compound in 5 ml of Medium 199 (M-199) supplemented with 2% lamb serum, 4 mM glutamine, 0.5% agarose and gentamycin was added to each well. Cultures were incubated at 37° C. in a humidified 5% CO2 incubator for 3-4 weeks. To terminate the test, cultures were fixed in 10% formalin, the agar removed, the monolayers stained with 1% crystal violet and plaques counted. Each compound concentration was run in triplicate. […] 0 is no toxicity observed while 4 is total lysing of the cell monolayer. […]
Control wells without virus were completed to determine the toxicity of compounds.

SMILES | inhibition at 1 µM | inhibition at 10 µM | inhibition at 100 µM | inhibition at 1000 µM | inhibition at 0.5 µM (0.0005 mM) | inhibition at 5 µM (0.005 mM) | inhibition at 50 µM (0.05 mM)
OC[C@@H]1[C@@H](O)[C@H](O)[C@@H](Cl)CN1Cc1ccccc1 [Example 32, 2-Chloro-1,2,5-trideoxy-1,5-(phenylmethyl)imino-D-glucitol] | 12% | -3% | 28% | – | – | – | –
CCCCN1C[C@H](Cl)[C@@H](OC(C)=O)[C@H](OC(C)=O)[C@H]1COC(C)=O [Example 38, 1,5-(Butylimino)-2-chloro-1,2,5-trideoxy-D-glucitol, triacetate] | – | 61% | 86% | 97% | – | – | –
CCCCN1C[C@H](OC(=O)Nc2ccccc2)[C@@H](O)[C@H](O)[C@H]1CO [Example 35] | – | 31% | 41% | – | – | – | –
CC(=O)OC[C@@H]1[C@@H](OC(C)=O)[C@H](OC(C)=O)[C@@H](Cl)CN1CCCc1ccccc1 [Example 39, 2-Chloro-1,2,5-trideoxy-1,5-(3-phenyl)propylimino-D-glucitol, triacetate] | – | – | – | – | 44% | 58% | 98%
CCCCN1C[C@H](OC(=O)OCC(C)C)[C@@H](O)[C@H](O)[C@H]1CO [Example 34, 1,5-(Butylimino)-1,5-dideoxy-D-glucitol, 2-[(2-methylpropyl)-carbonate]] | -2% | 7% | 89% | 100% | – | – | –
CCCCN1C[C@H]2O[C@H]2[C@H](OC(C)=O)[C@H]1COC(C)=O [Example 45, 2,3-Anhydro-1,5-(butylimino)-1,5-dideoxy-D-mannitol, diacetate] | – | 5% | 44% | 85% | – | – | –
CCCCN1C[C@H](Cl)[C@@H](OC(=O)CCC)[C@H](OC(=O)CCC)[C@H]1COC(=O)CCC [Example 40, 1,5-(Butylimino)-2-chloro-1,2,5-trideoxy-D-glucitrol, tributyrate] | 0% | 24% | 77% | – | – | – | –
